Experimental data from patent US20070299062A1 (The Procter & Gamble Company, priority 2006, published 2007).
Like-named read-outs stand apart in the source and are kept apart here.

Experiments:
5-HT2c receptor = target: T1, 5-HT2c receptor (Homo sapiens, UniProt P28335); experiment: 5-HT2c receptor binding assay (3H-mesulergine competition)
T1 construct: purchased Perkin-Elmer or Euroscreen (named only as possible suppliers)
T1 sequence (P28335 33-458): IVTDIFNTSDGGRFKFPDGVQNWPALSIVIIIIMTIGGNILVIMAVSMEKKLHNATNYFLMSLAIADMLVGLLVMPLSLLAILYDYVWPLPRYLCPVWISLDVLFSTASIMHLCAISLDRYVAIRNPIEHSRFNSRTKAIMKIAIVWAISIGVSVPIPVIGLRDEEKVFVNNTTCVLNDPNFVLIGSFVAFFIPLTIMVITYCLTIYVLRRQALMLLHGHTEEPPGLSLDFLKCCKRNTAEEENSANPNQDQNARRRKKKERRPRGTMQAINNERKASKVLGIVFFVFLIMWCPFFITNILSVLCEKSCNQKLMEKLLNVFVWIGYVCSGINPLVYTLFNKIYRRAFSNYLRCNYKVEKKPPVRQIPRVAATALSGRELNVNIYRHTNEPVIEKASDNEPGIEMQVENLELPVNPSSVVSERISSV
Procedure: MCH antagonist compounds are evaluated for binding to the serotonin 5-HT2c receptor to determine receptor selectivity. Binding activity is assessed using a competitive assay with ^3H-mesulergine (Perkin Elmer), a 5-HT2c selective ligand, on membrane containing the 5-HT2c receptor. Briefly, 1 nM ^3H-mesulergine and varying concentrations of the compound are incubated with 5-HT2c receptor membranes, following an incubation period, the membranes are washed and ^3H-mesulergine bound to membranes is measured in a liquid scintillation counter. The amount of bound ^3H-mesulergine at the varying concentration of competitor compound is used to derive the affinity (Ki) of the compound for the 5-HT2c receptor. 5-HT2c receptor containing membranes are readily available from several companies including Perkin-Elmer and Euroscreen.

MCH-1R = MCH-1R (UniProt Q99705); experiment: MCH-1R competition binding assay
Procedure: In vitro binding and function assays are performed on membranes derived from cells or tissues expressing endogenous MCH1R. Competition binding assays are performed to identify high affinity compounds. Briefly, either radiolabeled or europium labeled MCH with varying concentrations of competitor compound which are incubated with membranes expressing the receptor. Rat brain membrane or cell lines, including but not limited to human Kelly neuroblastoma cells, A-431 epidermoid cells, and rat PC-12 cells are known to express endogenous MCH1R and are used in the assay. Binding is allowed to proceed until equilibrium is reached then bound labeled MCH is separated from free MCH by capturing membranes onto a filter. The filters are washed to remove loosely associated MCH and labeled MCH is quantified. Data is analyzed and IC50 and Ki are calculated to determine compound affinity.

[1] = 1 nM 3H-mesulergine, read-out: Ki (nM) binding data 5-HT2C

Molecule	Ki (5-HT2c receptor; [1]) [nM]	Ki (MCH-1R) [nM]	Ki (5-HT2c receptor) [nM]
CN(C)Cc1ccc2c(c1)CC[C@H](n1cnc3cc(-c4ccc(Cl)cc4)sc3c1=O)C2 [6-(4-Chlorophenyl)-3-((S)-6-dimethylaminomethyl-1,2,3,4-tetrahydronapthealen-2-yl)thieno[3,2-d]pyrimidin-4(3H)-one]	3170	7.4	–
CN1CCN(C2CCN(Cc3ccc4c(c3)CC[C@H](n3cnc5cc(-c6ccc(Cl)cc6)sc5c3=O)C4)CC2)CC1 [(S)-6-(4-Chlorophenyl)-3-(6-{[4-(4-methylpiperazin-1-yl)piperidin-1-yl]methyl}-1,2,3,4-tetrahydronapthalen-2-yl)thieno[3,2-d]pyrimidin-4(3H)-one]	4790	42	–
CC(=O)N1CCN(Cc2ccc3c(c2)CC[C@H](n2cnc4cc(-c5ccc(Cl)c(Cl)c5)sc4c2=O)C3)CC1 [(S)-3-[6-(4-Acetylpiperazin-1-ymethyl)-1,2,3,4-tetrahydronapthalen-2-yl]-6-(3,4-dichlorophenyl)thieno[3,2-d]pyrimidin-4(3H)-one]	> 100000	54.5	–
CC(=O)N1CCN(Cc2ccc3c(c2)CC[C@H](n2cnc4cc(-c5cncc(Cl)c5)sc4c2=O)C3)CC1 [(S)-3-[6-(4-Acetylpiperazin-1-ymethyl)-1,2,3,4-tetrahydronapthalen-2-yl]-6-(5-chloropyridin-3-yl)thieno[3,2-d]pyrimidin-4(3H)-one]	> 100000	38	–
C[C@H](O)CNCc1ccc2c(c1)CC[C@H](n1cnc3cc(-c4ccc(Cl)cc4)sc3c1=O)C2 [6-(4-Chlorophenyl)-3-{(S)-6-[(S)-2-hydroxypropylaminomethyl]-1,2,3,4-tetrahydronapthealen-2-yl}thieno[3,2-d]pyrimidin-4(3H)-one]	3080	25	–
O=c1c2sc(-c3ccc(Cl)cc3)cc2ncn1[C@H]1CCc2cc(CN3CCCCC3)ccc2C1 [(S)-6-(4-Chlorophenyl)-3-(6-piperidin-1-ylmethyl-1,2,3,4-tetrahydronaphthalen-2-yl)thieno[3,2-d]pyrimidin-4(3H)-one]	3730	24.3	–
CS(=O)(=O)N1CCN(Cc2ccc3c(c2)CC[C@H](n2cnc4cc(-c5ccc(Cl)cc5)sc4c2=O)C3)CC1 [(S)-6-(4-Chlorophenyl)-3-(6-((4-methylsulfonyl)piperazin-1-yl)methyl)-1,2,3,4-tetrahydronapthalen-2-yl)thieno[3,2,-d]pyrimidin-4(3H)-one]	> 100000	65	–
CS(=O)(=O)N1CCN(Cc2ccc3c(c2)CC[C@H](n2cnc4cc(-c5ccc(Cl)cc5Cl)sc4c2=O)C3)CC1	> 100000	107	–
COc1cncc(-c2cc3ncn([C@H]4CCc5cc(CN6CCN(S(C)(=O)=O)CC6)ccc5C4)c(=O)c3s2)c1	–	17.9	> 100000
CS(=O)(=O)N1CCN(Cc2ccc3c(c2)CC[C@H](n2cnc4cc(-c5ccc(F)cc5F)sc4c2=O)C3)CC1	> 100000	7.6	–
CS(=O)(=O)N1CCN(Cc2ccc3c(c2)CC[C@H](n2cnc4cc(-c5cncc(F)c5)sc4c2=O)C3)CC1	–	13.4	> 100000
CS(=O)(=O)N1CCN(Cc2ccc3c(c2)CC[C@H](n2cnc4cc(-c5cncc(Cl)c5)sc4c2=O)C3)CC1	–	21	> 100000
CS(=O)(=O)C1CCN(Cc2ccc3c(c2)CC[C@H](n2cnc4cc(-c5ccc(Cl)cc5)sc4c2=O)C3)CC1 [6-(4-Chlorophenyl)-3-[(S)-6-(4-methanesulfonylpiperidin-1-ylmethyl)-1,2,3,4-tetrahydronapthealen-2-yl}thieno[3,2-d]pyrimidin-4(3H)-one]	> 100000	8.2	–
(S)-6-(4-Chlorophenyl)-3-(6-((4-morpholinopiperidin-1-yl)methyl)-1,2,3,4-tetrhaydronapthalene-2-yl)thieno[3,2,-d]pyrimidin-4-(3H)-one	> 100000	16	–
O=c1c2sc(-c3ccc(Cl)cc3)cc2ncn1[C@H]1CCc2cc(CN3CCCC3)ccc2C1 [(S)-6-(4-Chlorophenyl)-3-(6-pyrrolidin-1-ylmethyl-1,2,3,4-tetrahydronaphthalen-2-yl)thieno[3,2-d]pyrimidin-4(3H)-one]	3730	13.7	–
CC(=O)N1CCN(Cc2ccc3c(c2)CC[C@H](n2cnc4cc(-c5ccncc5)sc4c2=O)C3)CC1 [(S)-3-[6-(4-Acetylpiperazin-1-ymethyl)-1,2,3,4-tetrahydronapthalen-2-yl]-6-(pyridin-4-yl)thieno[3,2-d]pyrimidin-4(3H)-one]	8090	988	–
CS(=O)(=O)CCNCc1ccc2c(c1)CC[C@H](n1cnc3cc(-c4ccc(Cl)cc4)sc3c1=O)C2 [6-(4-Chlorophenyl)-3-{(S)-6-[(2-methanesulfonyl-ethylamino)methyl]-1,2,3,4-tetrahydronapthealen-2-yl}thieno[3,2-d]pyrimidin-4(3H)-one]	> 100000	22.6	–
COc1ncccc1-c1cc2ncn([C@H]3CCc4cc(CN5CCN(S(C)(=O)=O)CC5)ccc4C3)c(=O)c2s1	> 100000	373	–
CC(=O)N1CCN(Cc2ccc3c(c2)CC[C@H](n2cnc4cc(-c5ccc(F)cc5F)sc4c2=O)C3)CC1 [(S)-3-[6-(4-Acetylpiperazin-1-ymethyl)-1,2,3,4-tetrahydronapthalen-2-yl]-6-(2,4-difluorophenyl)thieno[3,2-d]pyrimidin-4(3H)-one]	> 100000	8.4	–
CS(=O)(=O)N1CCN(Cc2ccc3c(c2)CC[C@H](n2cnc4cc(-c5cccnc5)sc4c2=O)C3)CC1	> 100000	752	–
CC(=O)N1CCN(Cc2ccc3c(c2)CC[C@H](n2cnc4cc(-c5cc(F)cc(F)c5)sc4c2=O)C3)CC1 [(S)-3-[6-(4-Acetylpiperazin-1-ymethyl)-1,2,3,4-tetrahydronapthalen-2-yl]-6-(3,5-difluorophenyl)thieno[3,2-d]pyrimidin-4(3H)-one]	> 100000	369	–
CC(=O)N1CCN(Cc2ccc3c(c2)CC[C@H](n2cnc4cc(-c5ccnc(Cl)c5)sc4c2=O)C3)CC1 [(S)-3-[6-(4-Acetylpiperazin-1-ymethyl)-1,2,3,4-tetrahydronapthalen-2-yl]-6-(2-chloropyridin-4-yl)thieno[3,2-d]pyrimidin-4(3H)-one]	> 100000	496	–
CC(=O)N1CCN(Cc2ccc3c(c2)CC[C@H](n2cnc4cc(-c5cncc(F)c5)sc4c2=O)C3)CC1 [(S)-3-[6-(4-Acetylpiperazin-1-ymethyl)-1,2,3,4-tetrahydronapthalen-2-yl]-6-(5-fluoropyridin-3-yl)thieno[3,2-d]pyrimidin-4(3H)-one]	> 100000	97	–
CS(=O)(=O)N1CCN(Cc2ccc3c(c2)CC[C@H](n2cnc4cc(-c5cccc(C#N)c5)sc4c2=O)C3)CC1	> 100000	310	–
CC(=O)N1CCN(Cc2ccc3c(c2)CC[C@H](n2cnc4cc(-c5cccc(F)c5)sc4c2=O)C3)CC1 [(S)-3-[6-(4-Acetylpiperazin-1-ymethyl)-1,2,3,4-tetrahydronapthalen-2-yl]-6-(3-fluorophenyl)thieno[3,2-d]pyrimidin-4-(3H)one]	> 100000	17.9	–
CS(=O)(=O)N1CCN(Cc2ccc3c(c2)CC[C@H](n2cnc4cc(-c5ccc(F)c(F)c5)sc4c2=O)C3)CC1	> 100000	39.3	–
CC(=O)N1CCN(Cc2ccc3c(c2)CC[C@H](n2cnc4cc(-c5ccc(F)c(F)c5)sc4c2=O)C3)CC1 [(S)-3-[6-(4-Acetylpiperazin-1-ymethyl)-1,2,3,4-tetrahydronapthalen-2-yl]-6-(3,4-difluorophenyl)thieno[3,2-d]pyrimidin-4(3H)-one]	> 100000	36.6	–
